Laboratory results taken from patent publication US20240228504A1, “SUBSTITUTED TRICYCLIC AMIDES, ANALOGUES THEREOF, AND METHODS USING SAME” (Arbutus Biopharma Corporation, priority 2020, published 2024).

These molecules were tested on HBV rcDNA in HepDE19 cells (assay: HepDE19 assay with bDNA quantitation of HBV rcDNA). Conditions: HepDE19 assay, inhibition of rcDNA formation, bDNA quantitation; read-out: DE-19bDNA EC50.
Type: cell-based, hepatitis B virus

Row | Compound | EC50 [nM]
1 | CN(C(=O)c1cc2c(Cl)cccc2[nH]1)C1COCc2[nH]c(=O)c3cc(F)ccc3c21 (single isomer, unassigned) [Compound 424, 4-Chloro-N-(8-fluoro-6-oxo-1,4,5,6-tetrahydro-2H-pyrano[3,4-c]isoquinolin-1-yl)-N-methyl-1H-indole-2-carboxamide] | 510
2 | CN(C(=O)c1cc2ccccc2[nH]1)C1COCc2[nH]c(=O)c3cc(F)c(F)cc3c21 (single isomer, unassigned) [Compound 21, N-(8,9-Difluoro-6-oxo-1,4,5,6-tetrahydro-2H-pyrano[3,4-c]isoquinolin-1-yl)-N-methyl-1H-indole-2-carboxamide] | 3300
3 | CN(C(=O)c1cc2c(C(F)F)cccc2[nH]1)C1CNCc2[nH]c(=O)c3cc(F)ccc3c21 (single isomer, unassigned) [Compound 210, N-(8-Fluoro-6-oxo-1,2,3,4,5,6-hexahydrobenzo[c][1,7]naphthyridin-1-yl)-4-(difluoromethyl)-N-methyl-1H-indole-2-carboxamide] | 40
4 | CN(C(=O)C1Nc2ccccc2C1(C)C)C1COCc2[nH]c(=O)c3cc(F)c(F)cc3c21 (stereo not drawn) [Compound 57, N-(8,9-Difluoro-6-oxo-1,4,5,6-tetrahydro-2H-pyrano[3,4-c]isoquinolin-1-yl)-N,3,3-trimethylindoline-2-carboxamide] | 23000
5 | CN(C(=O)c1cc2c(F)cc(F)cc2[nH]1)C1COCc2[nH]c(=O)c3cc(F)c(F)cc3c21 (single isomer, unassigned) [Compound 44, N-(8,9-Difluoro-6-oxo-1,4,5,6-tetrahydro-2H-pyrano[3,4-c]isoquinolin-1-yl)-4,6-difluoro-N-methyl-1H-indole-2-carboxamide] | 10
6 | CN(C(=O)c1cc(F)c(Br)c(F)c1)C1COCc2[nH]c(=O)c3cc(F)ccc3c21 (single isomer, unassigned) [Compound 166, 4-Bromo-3,5-difluoro-N-(8-fluoro-6-oxo-2,4,5,6-tetrahydro-1H-pyrano[3,4-c]isoquinolin-1-yl)-N-methylbenzamide] | 1910
7 | CN(C(=O)c1ccc2cccn2c1)C1COCc2[nH]c(=O)c3cc(F)ccc3c21 (single isomer, unassigned) [Compound 390, N-(8-Fluoro-6-oxo-1,4,5,6-tetrahydro-2H-pyrano[3,4-c]isoquinolin-1-yl)-N-methylindolizine-6-carboxamide] | 70
8 | CN(C(=O)c1cc2c(F)c(F)ccc2[nH]1)C1COCc2[nH]c(=O)c3cc(F)c(F)cc3c21 (single isomer, unassigned) [Compound 46, N-(8,9-Difluoro-6-oxo-1,4,5,6-tetrahydro-2H-pyrano[3,4-c]isoquinolin-1-yl)-4,5-difluoro-N-methyl-1H-indole-2-carboxamide] | 5
9 | CN(C(=O)c1cc2c(C(F)F)cc(F)cc2[nH]1)C1CNCc2[nH]c(=O)c3cc(F)c(F)cc3c21 (single isomer, unassigned) [Compound 258, N-(8,9-Difluoro-6-oxo-1,2,3,4,5,6-hexahydrobenzo[c][1,7]naphthyridin-1-yl)-4-(difluoromethyl)-6-fluoro-N-methyl-1H-indole-2-carboxamide] | 20
10 | CN1Cc2[nH]c(=O)c3cc(F)ccc3c2C(N(C)C(=O)c2cc3ccccc3[nH]2)C1 (single isomer, unassigned) [Compound 60, N-(8-Fluoro-3-methyl-6-oxo-1,2,3,4,5,6-hexahydrobenzo[c][1,7]naphthyridin-1-yl)-N-methyl-1H-indole-2-carboxamide] | 5900
11 | CN(C(=O)c1cc(F)c(C(F)F)c(F)c1)C1CNCc2[nH]c(=O)c3cc(F)ccc3c21 (single isomer, unassigned) [Compound 186, 4-(Difluoromethyl)-3,5-difluoro-N-(8-fluoro-6-oxo-1,2,3,4,5,6-hexahydrobenzo[c][1,7]naphthyridin-1-yl)-N-methylbenzamide] | 200

Same assay, conditions: Hepatitis B virus, HepDE19, HepDE19 assay, inhibition of rcDNA formation, bDNA quantitation; read-out: DE-19bDNA EC50

Row | Compound | EC50 [nM]
12 | CN(C(=O)C(F)(F)c1ccccc1)[C@@H]1COCc2[nH]c(=O)c3cc(F)c(F)cc3c21 [Compound 512, (S)-N-(8,9-Difluoro-6-oxo-1,4,5,6-tetrahydro-2H-pyrano[3,4-c]isoquinolin-1-yl)-2,2-difluoro-N-methyl-2-phenylacetamide] | 25000
13 | CN(C(=O)C(F)(F)c1cccc(Br)c1)[C@@H]1COCc2[nH]c(=O)c3cc(F)c(F)cc3c21 [Compound 252, (S)-2-(3-Bromophenyl)-N-(8,9-difluoro-6-oxo-1,4,5,6-tetrahydro-2H-pyrano[3,4-c]isoquinolin-1-yl)-2,2-difluoro-N-methylacetamide] | 7700
14 | CN(C(=O)c1ccc2cncn2c1)[C@@H]1COCc2[nH]c(=O)c3cc(F)c(F)cc3c21 [Compound 299, (S)-N-(8,9-Difluoro-6-oxo-1,4,5,6-tetrahydro-2H-pyrano[3,4-c]isoquinolin-1-yl)-N-methylimidazo[1,5-a]pyridine-6-carboxamide] | 360
15 | COC1OC[C@@H](N(C)C(=O)c2cc3cc(F)c(F)cc3[nH]2)c2c1[nH]c(=O)c1cc(F)c(F)cc21 (stereo partly drawn) [Compound 320, N-((1S)-8,9-Difluoro-4-methoxy-6-oxo-1,4,5,6-tetrahydro-2H-pyrano[3,4-c]isoquinolin-1-yl)-5,6-difluoro-N-methyl-1H-indole-2-carboxamide] | 30
16 | CN(C(=O)c1cccc(S(C)(=O)=O)c1)[C@@H]1COCc2[nH]c(=O)c3cc(F)c(F)cc3c21 [Compound 298, (S)-N-(8,9-Difluoro-6-oxo-1,4,5,6-tetrahydro-2H-pyrano[3,4-c]isoquinolin-1-yl)-N-methyl-3-(methylsulfonyl)benzamide] | 9000
17 | CN(C(=O)c1ccc(C(F)(F)F)nc1)[C@@H]1COCc2[nH]c(=O)c3cc(F)c(F)cc3c21 [Compound 73, (S)-N-(8,9-Difluoro-6-oxo-1,4,5,6-tetrahydro-2H-pyrano[3,4-c]isoquinolin-1-yl)-N-methyl-6-(trifluoromethyl)nicotinamide] | 120
18 | CN(C(=O)c1ccc2c(cnn2C(F)F)c1)[C@@H]1COCc2[nH]c(=O)c3cc(F)c(F)cc3c21 [Compound 437, (S)-N-(8,9-Difluoro-6-oxo-1,4,5,6-tetrahydro-2H-pyrano[3,4-c]isoquinolin-1-yl)-1-(difluoromethyl)-N-methyl-1H-indazole-5-carboxamide] | 5
19 | CN(C(=O)c1c(F)cc(Br)cc1F)[C@@H]1COCc2[nH]c(=O)c3cc(F)c(F)cc3c21 [Compound 246, (S)-4-Bromo-N-(8,9-difluoro-6-oxo-1,4,5,6-tetrahydro-2H-pyrano[3,4-c]isoquinolin-1-yl)-2,6-difluoro-N-methylbenzamide] | 1960
20 | CN(C(=O)C1(O)Cc2ccccc2C1)[C@@H]1COCc2[nH]c(=O)c3cc(F)c(F)cc3c21 [Compound 275, (S)-N-(8,9-Difluoro-6-oxo-1,4,5,6-tetrahydro-2H-pyrano[3,4-c]isoquinolin-1-yl)-2-hydroxy-N-methyl-2,3-dihydro-1H-indene-2-carboxamide] | 3840
21 | CN(C(=O)c1cc(F)cc(-c2cccc(F)c2)c1)[C@@H]1COCc2[nH]c(=O)c3cc(F)c(F)cc3c21 [Compound 291, (S)-N-(8,9-Difluoro-6-oxo-1,4,5,6-tetrahydro-2H-pyrano[3,4-c]isoquinolin-1-yl)-3′,5-difluoro-N-methyl-[1,1′-biphenyl]-3-carboxamide] | 10100
